Consider four compounds from ChEMBL document CHEMBL5518165, “M335, a novel small-molecule STING agonist activates the immune response and exerts antitumor effects” (Eur J Med Chem, 2024).

The target of assay [1] is Stimulator of interferon genes protein (Homo sapiens) (UniProt Q86WV6). The experiment in a line: Agonist activity at STING in human THP-1 cells assessed as increase in LC3 protein level by Western blotting analysis. Type of assay: cell-based.
Assay [2] has the same target. The experiment in a line: Agonist activity at STING in human THP-1 cells assessed as increase in IRF3 phosphorylation by Western blotting analysis. Format: cell-based. On the technique in general: In western blotting, separated proteins are transferred to a membrane and probed.
For assay [3] the target is unchanged. As to the kind of experiment: Agonist activity at STING in human THP-1 cells assessed as increase in TBK1 phosphorylation by Western blotting analysis. Format: cell-based.
The subject of the next assay is Human alphaherpesvirus 1. As to the kind of experiment: Antiviral activity against HSV-1-GFP infected in human STING-deficient WT HeLa cells assessed as reduction in viral infection by fluorescent microscopy analysis. Type of assay: functional, organism-based.
The target of assay [4] is T1, Stimulator of interferon genes protein (Mus musculus) (UniProt Q3TBT3).
T1 sequence (whole entry): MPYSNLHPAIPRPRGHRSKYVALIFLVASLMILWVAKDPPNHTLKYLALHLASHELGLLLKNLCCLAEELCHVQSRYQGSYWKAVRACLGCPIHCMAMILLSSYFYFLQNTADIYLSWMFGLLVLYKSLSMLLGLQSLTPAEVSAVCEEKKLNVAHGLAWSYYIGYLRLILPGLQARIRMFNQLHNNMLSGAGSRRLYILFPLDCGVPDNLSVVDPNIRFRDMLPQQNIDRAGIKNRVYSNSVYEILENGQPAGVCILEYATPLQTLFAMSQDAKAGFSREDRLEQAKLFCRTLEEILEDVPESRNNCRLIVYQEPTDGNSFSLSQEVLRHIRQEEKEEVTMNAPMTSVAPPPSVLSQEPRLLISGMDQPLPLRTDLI
As to the kind of experiment: Agonist activity at STING in MEF cells assessed as STING translocation by measuring aggregation of green fluorescence incubated for 1 hr by laser scanning confocal microscope analysis. Type of assay: cell-based. The conditions noted are these: filed as agonist.

For assay [5], the target named is T1, Stimulator of interferon genes protein (Mus musculus). As to the kind of experiment: Agonist activity at STING in MEF cells assessed as nuclear transposition of phosphorylated IRF3 incubated for 1 hr by laser scanning confocal microscope analysis. Type of assay: cell-based. The conditions noted are these: filed as agonist.
Assay [6] has the same target. The experiment in a line: Agonist activity at STING in MEF cells assessed as STING translocation to golgi apparatus by measuring increase in red fluorescence incubated for 1 hr by laser scanning confocal microscope analysis. Format: cell-based. Conditions: filed as agonist.
For assay [7] the target is unchanged. As to the kind of experiment: Agonist activity at STING in MEF cells assessed as increase in STING oligomerization by Western blotting analysis. Format: cell-based. Conditions: filed as agonist.

Activity calls are given as the source filed them. No cut-off for these calls is given here.

Stimulator of interferon genes protein (Homo sapiens), sequence (Q86WV6 whole entry): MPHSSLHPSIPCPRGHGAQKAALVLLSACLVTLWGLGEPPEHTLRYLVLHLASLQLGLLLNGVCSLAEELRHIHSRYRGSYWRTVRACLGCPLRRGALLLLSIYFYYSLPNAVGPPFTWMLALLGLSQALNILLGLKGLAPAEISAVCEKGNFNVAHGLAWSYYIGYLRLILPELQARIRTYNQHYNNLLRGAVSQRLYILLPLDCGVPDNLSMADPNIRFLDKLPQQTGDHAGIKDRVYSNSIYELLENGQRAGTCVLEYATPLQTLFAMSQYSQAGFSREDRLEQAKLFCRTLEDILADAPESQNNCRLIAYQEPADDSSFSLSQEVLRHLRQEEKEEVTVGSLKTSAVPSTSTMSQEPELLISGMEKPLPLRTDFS

`CC(NC(=O)CC(c1ccccc1)c1ccccc1)c1ccccc1` (centres undefined): the result in assay [1], in assay [2] and in assay [3] was inactive.
`C[C@@H](NCCC(c1ccccc1)c1ccccc1)c1ccccc1`: the result in assay [1], in assay [2] and in assay [3] was inactive.
For `C[C@H](NCCC(c1ccccc1)c1ccccc1)c1ccccc1`, the result in assay [1], in assay [2] and in assay [3] was inactive.
With `Nc1nc2c(ncn2[C@@H]2O[C@@H]3COP(=O)(O)O[C@H]4[C@@H](O)[C@H](n5cnc6c(N)ncnc65)O[C@@H]4COP(=O)(O)O[C@@H]2[C@@H]3O)c(=O)[nH]1`, the result with Human alphaherpesvirus 1 was inactive. Further, the outcome in assay [4], in assay [5], in assay [6] and in assay [7] was Active.
